Test [1] relates to PDE4 enzyme. The test can be described thus: In vitro determination of PDE4 inhibitory activity in the cell free assay. As to conditions: U937 cell supernatant, 1.6 μM cAMP, 30° C. for 30 minutes, cAMP disappearance. The format is biochemical, human. As for the experimental part:
The U937 human monocytic cell line was used as source of PDE4 enzyme. Cells were cultured, harvested and supernatant fraction prepared essentially as described in T. J. Torphy, et al., J. Pharmacol. Exp. Ther., 1992; 263:1195-1205.
PDE4 activity was determined in cells supernatants by assaying cAMP disappearance from the incubation mixtures. 50 μl of cell supernatant were incubated at 30° C. for 30 minutes in a final volume of 200 μl in the presence of 1.6 μM cAMP with or without the test compound (50 μl).
The concentration of the test compounds ranged between 10^−12 M and 10^−6 M.
Reactions were stopped by heat inactivation (2.5 minutes at 100° C.), and residual cAMP was measured using an electrochemiluminescence (ECL)-based immunoassay.
The results are expressed as mean±95% confidence limits of the molar concentration of the test compound producing 50% inhibition of cAMP disappearance (IC50).
Percentage of inhibition of PDE4 activity was calculated, assuming cAMP disappearance in the absence of inhibitors as 100% and cAMP disappearance in heat inactivated samples as 0%.

The subject of test [2] is LPS-induced TNF-α release in peripheral blood mononuclear cells (PBMCs). The test can be described thus: In vitro determination of PDE4 inhibitory activity in the peripheral blood mononuclear cells (PBMCs) assay. The note with it: PBMC; human PBMCs, LPS (3 ng/ml), 18 hours, TNF-α by ELISA. Type of test: cell-based. As for the experimental part:
The assay, which is based on the known inhibitory activity exerted by PDE4 inhibitors on the lipopolysaccharides (LPS)-induced tumour necrosis factor-alpha (TNF-α release in peripheral blood mononuclear cells (PBMCs), was performed according to the method described by A. Hatzelmann, et al., J. Pharmacol. Exp. Ther., 2001; 297:267-279 and by R. Draheim, et al., J. Pharmacol. Exp. Ther., 2004; 308:555-563.
Cryopreserved human PBMCs, (100 μl/well) were incubated in 96-well plates (10^5 cells/well), for 30 minutes, in the presence or absence (50 microl) of the test compounds whose concentrations ranged from 10^−12 M to 10^−6 M. Subsequently, LPS (3 ng/ml) was added.
After 18 hours incubation at 37° C. in a humidified incubator under an atmosphere of 95% air and 5% CO2, culture medium was collected and TNF-α measured by ELISA. The results are expressed as mean±95% confidence limits of the molar concentration of the test compound producing 50% inhibition of LPS-induced TNF-α release (IC50).
The effects of the tested compounds were calculated as percent inhibition of TNF-α release, assuming LPS-induced TNF-α production in the absence of inhibitor compound as 100% and basal TNF-α production of PBMCs in the absence of LPS as 0%.
For orientation: An ELISA detects its analyte on a solid surface through an enzyme-linked reagent.

Each structure is given as a SMILES string.

The IC50 is the midpoint of a concentration-inhibition curve. Low readings indicate higher potency, high ones lower potency.

Consider `COc1ccc(N(Cc2ccc(S(C)(=O)=O)cc2)Cc2c(Cl)cncc2Cl)cc1OC` [Compound C4, (3,5-Dichloro-pyridin-4-ylmethyl)-(3,4-dimethoxy-phenyl)-(4-methanesulfonyl-benzyl)-amine], for which the IC50 was 60 nM in test [1] and 198 nM in test [2].

For the compound `COc1ccc(N(Cc2ccc(S(N)(=O)=O)cc2)Cc2c(Cl)cncc2Cl)cc1OC` [Compound C10, 4-{[(3,5-Dichloro-pyridin-4-ylmethyl)-(3,4-dimethoxy-phenyl)-amino]-methyl}-benzenesulfonamide], the IC50 in test [1] and in test [2] was 38 nM throughout.

With `COc1ccc(CN(Cc2c(Cl)cncc2Cl)c2ccc(OC)c(OC)c2)cc1` [Compound C13, (3,5-Dichloro-pyridin-4-ylmethyl)-(3,4-dimethoxy-phenyl)-(4-methoxy-benzyl)-amine], the IC50 is 97.1 nM in test [1] and 9.85 nM in test [2].

With `CCOc1cc(N(Cc2ccc(OC)cc2)Cc2c(Cl)cncc2Cl)ccc1OC` [Compound C14, (3,5-Dichloro-pyridin-4-ylmethyl)-(3-ethoxy-4-methoxy-phenyl)-(4-methoxy-benzyl)-amine], the values for the IC50 in test [1] and in test [2] were 27 nM and 117 nM, respectively.

`COc1ccc(N(Cc2ccco2)Cc2c(Cl)cncc2Cl)cc1OC` [Compound C9, (3,5-Dichloro-pyridin-4-ylmethyl)-(3,4-dimethoxy-phenyl)-furan-2-ylmethyl-amine]: in test [2], 47.8 nM corresponded to half-maximal inhibition (IC50).

In the case of `COc1cccc(CN(Cc2c(Cl)cncc2Cl)c2ccc(OC)c(OC)c2)c1` [Compound C3, (3,5-Dichloro-pyridin-4-ylmethyl)-(3,4-dimethoxy-phenyl)-(3-methoxy-benzyl)-amine], the half-maximal inhibitory concentration (IC50) amounted to 140 nM in test [1] and 184 nM in test [2].

`COc1ccc(N(Cc2ccc(F)cc2)Cc2c(Cl)cncc2Cl)cc1OC` [Compound C1, (3,5-Dichloro-pyridin-4-ylmethyl)-(3,4-dimethoxy-phenyl)-(4-fluoro-benzyl)-amine]: the results for the IC50 in test [1] and in test [2] were 81 nM and 661 nM, respectively.

The values are drawn from US7820698B2, “Phosphodiesterase-4 inhibitors belonging to the tertiary amine class” (Chiesi Farmaceutici S.p.A., priority 2008, dated 2010).
